Laboratory results reported in patent publication US4849425A, “Readily absorbable pharmaceutical composition” (Ishihara Sangyo Kaisha Ltd., priority 1985, dated 1989).
Values after ≈ are worked out from the molar mass of the structure shown.

Legend:
[1] = Rectal suppository, plasma concentration in rats (Test Example 6); assay type: in vivo, Wistar male rat; conditions: rat; for Concentration in the plasma / concentration at 0.5 h / concentration at 1 h / concentration at 2 h / concentration at 4 h: rectal; for Concentration in the plasma: 0; for concentration at 0.5 h / concentration at 1 h / concentration at 2 h / concentration at 4 h: plasma
Protocol: A Witepsol W-35 suppository (weight: about 45 mg) comprising 1.8 mg of Compound No. 3 and 12.5% (weight/volume) of dimethyl β-type cyclodextrin, was administered to the rectum of each Wistar male rat having a body weight of about 90 g (a group of three rats). Then, the blood was periodically sampled from the jugular vein, and the concentration of Compound No. 3 in the plasma was measured. To a control group, a suppository contained no cyclodextrin was administered. It is evident that by the addition of dimethyl β-type cyclodextrin, the absorbability of Compound No. 3 increased.

[2] = Absorbability through the gut, oral, various dispersing solvents, plasma concentration in rats (Test Example 4); assay type: in vivo, Wistar male rats; conditions: 20 mg/kg, rat
Protocol: 20 mg of Compound No. […] 3. The suspension was orally administered by an oral sonde to a group of three Wistar male rats (body weight: 200-250g). The dose of Compound No. 3 was 20 mg/kg rat body weight. Further, Compound No. 3 was likewise suspended in an aqueous solution containing 0.5% of sodium salt of carboxymethyl cellulose, and the suspension was used as the control ( in FIG. 3). After the administration, the blood was periodically sampled, and the plasma was separated. After the removal of protein by acetonitrile, Compound No. 3 in the plasma was quantitatively analyzed by a high speed liquid chromatography as shown in Test Example 1.
The changes with time of the concentration of Compound No. 3 in the plasma after the oral administration were studied in the same manner as in Test Example 3 by using an aqueous solution of 10% (weight/volume) Polysolvate 80 (Tween 80, manufactured by Nakayai Kagaku K.K.), 10% (weight/volume) polyoxyethylene hardened caster oil 60 (manufactured by Nikko Chemical K.K.), 100% polyethylene glycol 400 or 50% (weight/volume) dimethyl β-type cyclodextrin, as the dispersing solvent for Compound No. 3, and an aqueous solution of 0.5% (weight/volume) sodium salt of carboxymethyl cellulose, as the control. […]

[3] = Absorbability through the gut, oral suspension in cyclodextrin solutions, plasma concentration in rats (Test Example 3); assay type: in vivo, Wistar male rats; conditions: 40% dimethyl β-type cyclodextrin vs control (0.5% sodium carboxymethyl cellulose), 20 mg/kg, rat
Protocol: 20 mg of Compound No. 3 was taken into a mortar, and 5 ml of an aqueous solution containing 1.7% of β-type cyclodextrin or 2% or 40% of dimethyl β-type cyclodextrin was added under stirring to obtain a suspension of Compound No. 3. The suspension was orally administered by an oral sonde to a group of three Wistar male rats (body weight: 200-250g). The dose of Compound No. 3 was 20 mg/kg rat body weight. Further, Compound No. 3 was likewise suspended in an aqueous solution containing 0.5% of sodium salt of carboxymethyl cellulose, and the suspension was used as the control ( in FIG. 3). After the administration, the blood was periodically sampled, and the plasma was separated. After the removal of protein by acetonitrile, Compound No. 3 in the plasma was quantitatively analyzed by a high speed liquid chromatography as shown in Test Example 1.

L-1210 leukemia cells = assay: Antitumour activity against intraperitoneally inoculated L-1210 leukemia, oral administration (Test Example 9); assay type: in vivo, BDF1 mice
Source text: The pharmacological activities of the pharmaceutical compositions of the present invention were studied.
To BDF1 mice (male, […]), L-1210 leukemia cells were intraperitoneally inoculated in an amount of 1×10^6 cells/mouse. One day later and 4 days later, a test drug was orally administered. […]

[4] = Solubility of Compound No. 3 in aqueous cyclodextrin solutions or polyethylene glycol 400 at 25° C. (Test Example 2); assay type: physicochemical
Protocol: 0.1 μmol of Compound No. 1 or No. 2 was added to 1 ml of an aqueous solution of each cyclodextrin with a concentration of from 0 to 8 mM, and the mixture was shaken at 25° C. for 100 hours. After completion of the shaking, the mixture was filtered through a millipore filter of 0.45 μm to obtain a filtrate.
Separation column: As the packing material, octadecylated silica gel was filled in a stainless steel tube having an internal diameter of from 0.39 to 4.6 mm and a length of from 100 to 300 mm.
Column temperature: 30° C.
Mobile phase: Mixture of acetonitrile-water (the mixing ratio was adjusted so that the eluting time of the drug becomes from 5 to 10 minutes).
Wave length for detection: 265 nm
7.5 mg of […]. was added to 1 ml of an aqueous solution of each cyclodextrin at various concentrations or to 1 ml of polyethylene glycol 400, and the solubility of Compound No. 3 at 25° C. was obtained in the same manner as the Test Example b 1.

[5] = 1.8 mg, Witepsol W-35 suppository, 12.5% (w/v) dimethyl β-type cyclodextrin
[6] = 1.8 mg, control suppository without cyclodextrin

## O=C(NC(=O)c1ccccc1[N+](=O)[O-])Nc1ccc(Oc2ncc(Br)cn2)c(Cl)c1 [Compound No. 3, N-(2-nitrobenzoyl)-N'-[4-(5-bromo-2-pyrimidinyloxy)-3-chlorophenyl]urea]
[1]; Witepsol W-35 suppository, 1.8 mg, 12.5% (w/v) dimethyl β-type cyclodextrin
  Concentration in the plasma: 0 ng/mL
[1]; addition of dimethyl β-type cyclodextrin, rectal suppository
  absorbability: increased
[1]; control suppository without cyclodextrin
  Concentration in the plasma: 0 ng/mL
[1]; [5]
  concentration at 0.5 h: 320 ng/mL
  concentration at 1 h: 480 ng/mL
  concentration at 2 h: 940 ng/mL
  concentration at 4 h: 990 ng/mL
[1]; [6]
  concentration at 0.5 h: 40 ng/mL
  concentration at 1 h: 80 ng/mL
  concentration at 2 h: 110 ng/mL
  concentration at 4 h: 90 ng/mL
[2]; 50% (w/v) dimethyl β-type cyclodextrin vs 0.5% sodium carboxymethyl cellulose
  concentration in the plasma as compared with the control: about 7.5 times
[2]; 100% polyethylene glycol 400 vs 0.5% sodium carboxymethyl cellulose
  concentration in the plasma as compared with the control: about 5 times
[3]
  concentration in the plasma relative to the control: about 3.5 times
L-1210 leukemia cells; only when administered together with the substance specified in the invention
  antitumour activities: distinctly observed
L-1210 leukemia cells; polyethylene glycol 400 + substrate + Compound No. 3, 6.25 mg/kg
  T/C: 120%
L-1210 leukemia cells; polyethylene glycol 400 + substrate + Compound No. 3, 12.5 mg/kg
  T/C: 134%
L-1210 leukemia cells; polyethylene glycol 400 + substrate + Compound No. 3, 25 mg/kg
  T/C: 183%
L-1210 leukemia cells; polyethylene glycol 400 + substrate + Compound No. 3, 50 mg/kg
  T/C: 95%
L-1210 leukemia cells; polyethylene glycol 400 absent
  antitumour activities: no antitumour activities were observed
L-1210 leukemia cells; substrate + Compound No. 3 (no polyethylene glycol 400), 6.25 mg/kg
  T/C: 102%
L-1210 leukemia cells; substrate + Compound No. 3 (no polyethylene glycol 400), 12.5 mg/kg
  T/C: 102%
L-1210 leukemia cells; substrate + Compound No. 3 (no polyethylene glycol 400), 25 mg/kg
  T/C: 101%
L-1210 leukemia cells; substrate + Compound No. 3 (no polyethylene glycol 400), 50 mg/kg
  T/C: 103%
[4]; aqueous dimethyl α-type cyclodextrin, dimethyl α-type cyclodextrin 17.5 mg/ml, aqueous
  solubility: 0.294 µg/mL (≈ 0.597 µM)
[4]; aqueous dimethyl β-type cyclodextrin, dimethyl β-type cyclodextrin 20.0 mg/ml, aqueous
  solubility: 24.1 µg/mL (≈ 48.9 µM)
[4]; aqueous dimethyl β-type cyclodextrin, dimethyl β-type cyclodextrin 140 mg/ml, aqueous
  solubility: 5180 µg/mL (≈ 10500 µM)
[4]; aqueous dimethyl β-type cyclodextrin, dimethyl β-type cyclodextrin 500 mg/ml, aqueous
  solubility: 7440 µg/mL (≈ 15100 µM)
[4]; aqueous solution, no additives, aqueous solution containing no additives
  solubility: 0.024 µg/mL (≈ 0.0487 µM)
[4]; aqueous trimethyl β-type cyclodextrin, trimethyl β-type cyclodextrin 21.4 mg/ml, aqueous
  solubility: 1 µg/mL (≈ 2.03 µM)
[4]; aqueous trimethyl β-type cyclodextrin, trimethyl β-type cyclodextrin 100 mg/ml, aqueous
  solubility: 13.4 µg/mL (≈ 27.2 µM)
[4]; aqueous trimethyl β-type cyclodextrin, trimethyl β-type cyclodextrin 200 mg/ml, aqueous
  solubility: 30.4 µg/mL (≈ 61.7 µM)
[4]; aqueous α-type cyclodextrin 14.6 mg/ml, α-type cyclodextrin 14.6 mg/ml, aqueous
  solubility: 0.164 µg/mL (≈ 0.333 µM)
[4]; aqueous β-type cyclodextrin 17.0 mg/ml, β-type cyclodextrin 17.0 mg/ml, aqueous
  solubility: 1.64 µg/mL (≈ 3.33 µM)
[4]; polyethylene glycol 400, organic solvent or mixture, polyethylene glycol 400, 100%
  solubility: 7500 µg/mL (≈ 15200 µM)
